Measurements published in publication PMC12613816, “Discovery of Novel Isoxazole-Based Small-Molecule Toll-Like Receptor 8 Antagonists” (Journal of Medicinal Chemistry, 2025).

Experiments:
hTLR7 = target: T1, hTLR7 (Homo sapiens, UniProt Q9NYK1); assay: Inhibition of CL307-stimulated NF-κB activity (SEAP reporter) in hTLR7-HEK293 reporter cells; assay type: cell-based; settings: read-out: IC50 [μM] (95% CI) hTLR7-HEK293; inhibition of NF-κB activity; 1 h preincubation, CL307 (1.7 µM) 24 h
T1 construct: host or cells: HEK293 (HEK-Blue hTLR7)
T1 sequence (Q9NYK1 27-1049): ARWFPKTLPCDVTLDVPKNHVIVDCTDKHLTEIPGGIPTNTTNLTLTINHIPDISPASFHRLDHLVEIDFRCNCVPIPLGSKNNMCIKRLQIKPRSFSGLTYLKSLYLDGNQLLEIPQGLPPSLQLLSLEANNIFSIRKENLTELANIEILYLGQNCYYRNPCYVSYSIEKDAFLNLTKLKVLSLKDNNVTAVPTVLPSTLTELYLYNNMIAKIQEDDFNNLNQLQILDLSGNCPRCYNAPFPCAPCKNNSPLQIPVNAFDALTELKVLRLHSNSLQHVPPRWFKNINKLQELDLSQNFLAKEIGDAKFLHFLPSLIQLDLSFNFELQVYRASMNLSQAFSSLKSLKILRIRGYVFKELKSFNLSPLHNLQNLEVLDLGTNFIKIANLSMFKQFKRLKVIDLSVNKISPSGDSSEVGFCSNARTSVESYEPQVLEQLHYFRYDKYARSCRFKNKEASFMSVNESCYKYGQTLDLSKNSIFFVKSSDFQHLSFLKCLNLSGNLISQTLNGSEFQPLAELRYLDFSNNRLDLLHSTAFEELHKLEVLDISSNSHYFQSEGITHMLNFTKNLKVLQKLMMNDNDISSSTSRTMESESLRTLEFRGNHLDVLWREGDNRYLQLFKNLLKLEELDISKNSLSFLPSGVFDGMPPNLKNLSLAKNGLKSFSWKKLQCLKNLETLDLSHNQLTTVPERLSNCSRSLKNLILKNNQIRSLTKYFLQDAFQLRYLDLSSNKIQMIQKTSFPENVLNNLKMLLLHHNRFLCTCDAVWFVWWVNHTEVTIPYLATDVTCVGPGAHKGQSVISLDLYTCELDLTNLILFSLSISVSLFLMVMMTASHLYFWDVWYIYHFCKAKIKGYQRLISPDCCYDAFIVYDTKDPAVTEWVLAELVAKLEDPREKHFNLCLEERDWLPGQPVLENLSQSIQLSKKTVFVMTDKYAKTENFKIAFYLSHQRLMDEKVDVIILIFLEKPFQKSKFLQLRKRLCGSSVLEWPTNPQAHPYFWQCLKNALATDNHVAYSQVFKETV
From the text: For stimulation experiments, cells were washed with phosphate-buffered saline (PBS, Sigma-Aldrich) and media was replaced with OptiMEM (Thermo Fisher Scientific, Darmstadt, Germany). […] The following TLR ligands were used: Pam2CSK4, Pam3CSK4, poly(I:C) (HMW), LPS from Escherichia coli O111:B4 (LPS-EB Ultrapure), flagellin from Bacillus subtilis (flagellin-BS Ultrapure), CL307, CL075, R848, TL8-506, ODN2006 (all from InvivoGen, Toulouse, France), and Enpatoran (BIOZOL Diagnostika, Germany).

TLR8 F495L mutation = target: T2, TLR8 F495L mutation (Homo sapiens, UniProt Q9NR97, F495L); assay: NF-κB SEAP reporter in HEK293 reporter control cells transfected with TLR8 F495L mutant plasmid; assay type: cell-based; settings: compound 10 2 μM, Enpatoran 1 μM; TL8-506 3 μM or CL075 4 μM, 24 h
T2 construct: host or cells: HEK-Blue Null1 cells, transient transfection with PEI Max
T2 sequence (Q9NR97 1-1059 isoform Q9NR97-2 F513L): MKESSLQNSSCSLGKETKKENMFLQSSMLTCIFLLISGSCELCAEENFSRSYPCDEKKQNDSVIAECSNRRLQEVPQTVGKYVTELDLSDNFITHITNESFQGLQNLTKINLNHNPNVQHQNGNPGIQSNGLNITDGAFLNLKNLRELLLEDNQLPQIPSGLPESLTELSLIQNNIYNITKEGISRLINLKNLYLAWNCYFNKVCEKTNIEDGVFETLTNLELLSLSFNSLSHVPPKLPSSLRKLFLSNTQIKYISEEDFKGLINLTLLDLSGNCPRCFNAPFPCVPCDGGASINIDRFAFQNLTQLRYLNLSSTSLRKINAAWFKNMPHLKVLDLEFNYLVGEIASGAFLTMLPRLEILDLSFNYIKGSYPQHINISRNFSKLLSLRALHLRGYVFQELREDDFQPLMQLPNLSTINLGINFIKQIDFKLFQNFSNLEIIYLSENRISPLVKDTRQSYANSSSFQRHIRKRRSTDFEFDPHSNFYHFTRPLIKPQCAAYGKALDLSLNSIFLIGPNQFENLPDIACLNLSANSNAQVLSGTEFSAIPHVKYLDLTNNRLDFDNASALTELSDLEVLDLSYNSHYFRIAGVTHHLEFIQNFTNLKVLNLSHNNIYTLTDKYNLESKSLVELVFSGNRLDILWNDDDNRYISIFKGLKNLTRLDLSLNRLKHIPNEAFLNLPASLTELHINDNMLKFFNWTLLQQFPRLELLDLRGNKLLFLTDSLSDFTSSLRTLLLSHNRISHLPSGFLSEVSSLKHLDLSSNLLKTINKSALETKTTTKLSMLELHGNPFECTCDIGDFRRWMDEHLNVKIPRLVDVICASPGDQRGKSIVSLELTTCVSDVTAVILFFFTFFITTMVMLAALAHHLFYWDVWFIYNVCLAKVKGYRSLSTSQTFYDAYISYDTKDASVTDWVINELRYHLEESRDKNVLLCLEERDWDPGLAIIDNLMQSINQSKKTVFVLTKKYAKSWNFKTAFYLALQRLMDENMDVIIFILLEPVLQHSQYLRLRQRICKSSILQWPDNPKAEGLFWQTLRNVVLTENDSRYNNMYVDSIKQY

TLR8 [1] = target: T3, TLR8 (Homo sapiens, UniProt Q9NR97); assay: Inhibition of TL8-506-stimulated NF-κB activity (SEAP reporter, QuantiBlue) in hTLR8-HEK293 reporter cells; assay type: cell-based; design: host or cells: HEK293 (HEK-Blue hTLR8); settings: TL8-506 (0.6 μM) 24 h
T3 sequence (Q9NR97 27-1041): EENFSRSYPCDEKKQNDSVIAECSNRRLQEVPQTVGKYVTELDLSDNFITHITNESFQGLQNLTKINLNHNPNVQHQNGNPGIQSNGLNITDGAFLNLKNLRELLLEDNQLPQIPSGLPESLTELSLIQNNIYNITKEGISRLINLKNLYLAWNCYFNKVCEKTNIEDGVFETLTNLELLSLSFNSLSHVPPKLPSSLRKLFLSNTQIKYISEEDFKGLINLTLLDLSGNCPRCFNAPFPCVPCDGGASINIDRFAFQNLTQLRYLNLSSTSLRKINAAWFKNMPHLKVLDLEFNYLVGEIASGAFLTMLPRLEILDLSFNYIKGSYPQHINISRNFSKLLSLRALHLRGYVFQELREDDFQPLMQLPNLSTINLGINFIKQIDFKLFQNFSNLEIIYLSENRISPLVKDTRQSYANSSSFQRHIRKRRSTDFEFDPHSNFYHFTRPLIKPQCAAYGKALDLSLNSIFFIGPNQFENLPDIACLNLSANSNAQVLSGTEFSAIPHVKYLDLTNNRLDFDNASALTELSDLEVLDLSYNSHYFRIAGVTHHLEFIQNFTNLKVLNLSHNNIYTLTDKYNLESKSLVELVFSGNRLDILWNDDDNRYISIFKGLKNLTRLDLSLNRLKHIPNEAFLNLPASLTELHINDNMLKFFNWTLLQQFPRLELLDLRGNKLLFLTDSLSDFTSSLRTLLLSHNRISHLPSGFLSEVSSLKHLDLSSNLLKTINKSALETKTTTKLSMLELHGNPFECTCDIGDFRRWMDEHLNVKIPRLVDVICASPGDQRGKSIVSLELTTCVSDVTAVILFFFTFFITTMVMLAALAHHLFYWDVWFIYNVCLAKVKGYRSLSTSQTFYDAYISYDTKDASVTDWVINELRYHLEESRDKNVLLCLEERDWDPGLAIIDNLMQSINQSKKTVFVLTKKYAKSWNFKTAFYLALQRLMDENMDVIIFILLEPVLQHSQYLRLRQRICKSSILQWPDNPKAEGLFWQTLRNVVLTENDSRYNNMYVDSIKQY

TLR8 [2] = target: T3, TLR8; assay: Inhibition of TL8-506-stimulated TNF release (ELISA) in PBMCs; settings: read-out: IC50 [μM] (95% CI) TNF release PBMCs, 1 h preincubation, TL8-506 (0.6 μM) 4 h
From the text: For the calculation of concentration–response curves, nonlinear regression with variable slope (four parameters) was used. Mean ± SEM (n = 3).
PMBCs were washed three times with PBS containing ETDA and afterward seeded in 24-well plates (5 × 10^6 cells/well).

SMILES: N#Cc1ccc(N2C[C@H](N)C[C@H](C(F)(F)F)C2)c2cccnc12 [Enpatoran, reference compound]
- IC50 (hTLR7): ≤ 0.05 µM
- TLR8 activation in F495L mutation, triggered by CL075 and TL8-506 (TLR8 F495L mutation): reduced
- inhibition at 10 µM (TLR8 [1]; read-out: % inhibition at 10 µM ± SEM (NF-κB activity), 10 µM compound, hTLR8-HEK293): 100%
- IC50 (TLR8 [1]; read-out: IC50 [μM] (95% CI) hTLR8-HEK293, inhibition of NF-κB activity, 1 h preincubation): 0.285 µM
- IC50 (TLR8 [2]): 0.074 µM
